Data from patent US10188651B2, “Methods of treating sleep disorders” (Melior Pharmaceuticals II, LLC, priority 2013, dated 2019).

Legend:
[1] = system: C57Bl/6 mice treated with MPTP; experiment: Open Field Activity assay after MPTP; format: in vivo, mouse; details: compound 30 min prior to MPTP (3x20 mg/kg) and daily for 4 days; measured day 5, 30 min open field
Description: An Open Field Activity assay was performed in which locomotor and sensorimotor parameters were evaluated in an automated open-field apparatus. 1-methyl-4-phenyl-1,2,3,6-tetrahydropyridine (MPTP) injections (3×20 mg/kg) were performed in C57Bl/6 mice at two-hour intervals (final dose of MPTP=60 mg/kg). Mice were treated with the compound 30 minutes prior to MPTP and daily for 4 days. Locomotor activity was monitored on day 5, thirty minutes after administration of test compound. Locomotor activity was measured in an automated open-field (MedAssociates) for 30 minutes. The following parameters were measured: 1) horizontal distance traveled, 2) number of rearing events and 3) stereotypic behavior.

[2] = system: 6-OHDA unilaterally lesioned Sprague-Dawley rats; experiment: Abnormal involuntary movements (AIMs) test, Examples 1 and 2; details: for effect of test drug on L-dopa-induced AIMs (dyskinesia): L-dopa day 1 (50 mg/kg), L-dopa and test drug day 2; for abnormal involuntary movements (AIMs) score compared to vehicle-treated rats: once daily, scored 60 min after injection, L-dopa 6 mg/kg for 5 days, Sydnocarb 10 and 30 mg/kg, no combination
Description: Female, Sprague-Dawley rats (Charles River Laboratories) at 7 to 8 weeks of age were used. Animals were assigned randomly to treatment groups. The diet consisted of standard rodent chow and water ad libitum.
6-OHDA was formulated at 5 mg/ml solution in 0.03% ascorbic acid in sterile 0.9% NaCl. Three μL of 6-OHDA was injected into the median forebrain bundle at the following stereotaxic coordinates from bregma: Anteroposterior (A/P) −4.0 mm; mediolateral (M/L) −1.3 mm; ventrodorsal (V/D) −8.0 mm with reference to the top of the skull.
After lesion, rats were allowed to recover for two weeks and then tested for amphetamine-induced rotational activity. Animals were treated with 25 mg/kg amphetamine in saline and recorded in an open-field chamber for 90 minutes. Only rats rotating greater than 4 times per minute were used in efficacy studies. After an additional one week, rats were treated with L-dopa (Isotec IY0630) at various times and measured for the appearance of abnormal involuntary movements (AIMs).
The AIMs test was carried out as follows: 1) weigh rat and inject with L-dopa/benserazide (10 ml/kg, ip); may be a single injection per day over multiple days; administration of a test compound or reference compound may also be included; 2) place rat in empty cage, start video recording; 3) AIMs were assessed in four areas: a) onset of symptoms-latency (seconds) to first visual AIM as defined below; b) 30 minute AIM score; c) 60 minute AIM score; and d) number of left rotations from 30-60 minutes; 4) AIMs were scored and recorded on a scale from 0 to 4: i) absent; ii) slight left forelimb dystonia with grooming; iii) excessive left forelimb dystonia with grooming; iv) left forelimb dystonia with left circling; and v) continuous left circling with or without grooming; 5) record any unusual clinical signs; and 6) after 60 minutes, stop recording, place rat back into home cage.
Sixty minutes after injection, abnormal involuntary movements (AIMs) were scored.
Rats receiving a unilateral 6-OHDA lesion as described above were treated with L-dopa (day 1, 50 mg/kg) and then L-dopa and test drug (day 2, Sydnocarb or Tesofensine).

DA transporter (DAT) = DA transporter (DAT) (Homo sapiens, UniProt Q01959); details: Gruner et al. 2011; cited from earlier work
Sequence of DA transporter (DAT) (Q01959 whole entry, species assumed): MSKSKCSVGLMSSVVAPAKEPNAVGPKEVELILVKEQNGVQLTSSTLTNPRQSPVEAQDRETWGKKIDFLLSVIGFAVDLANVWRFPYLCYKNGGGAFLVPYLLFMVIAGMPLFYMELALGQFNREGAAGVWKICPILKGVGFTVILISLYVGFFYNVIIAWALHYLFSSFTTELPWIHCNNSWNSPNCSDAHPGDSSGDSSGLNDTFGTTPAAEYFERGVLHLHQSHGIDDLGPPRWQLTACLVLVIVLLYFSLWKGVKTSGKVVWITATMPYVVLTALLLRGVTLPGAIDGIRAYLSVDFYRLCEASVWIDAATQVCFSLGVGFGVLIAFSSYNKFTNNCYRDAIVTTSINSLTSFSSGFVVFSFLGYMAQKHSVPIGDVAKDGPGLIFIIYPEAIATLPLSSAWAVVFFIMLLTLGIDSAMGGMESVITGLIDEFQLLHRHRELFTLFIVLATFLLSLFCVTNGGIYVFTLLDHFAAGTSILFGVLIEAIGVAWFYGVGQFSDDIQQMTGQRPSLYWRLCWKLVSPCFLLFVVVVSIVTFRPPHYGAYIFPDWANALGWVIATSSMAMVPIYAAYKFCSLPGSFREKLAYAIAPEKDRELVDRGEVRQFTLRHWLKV

[3] = system: unilaterally lesioned 6-OHDA rats; experiment: Axial, limb and orolingual (ALO) AIMs rating, chronic dosing
Description: L-dopa was administered at a dose level of 12 mg/kg (ip) along with benserazide (ip; 4 mg/kg). Sydnocarb (10 or 30 mg/kg, ip), amantadine (40 mg/kg ip), or vehicle was administered 30 minutes prior to L-dopa/benserazide. As a “priming” step, L-dopa was administered daily by itself for 1 week after the amphetamine rotation wash-out period. Subsequently, Sydnocarb, along with L-dopa, was dosed daily for an additional 12 days.
After treatment, rats were placed in a confined chamber and monitored for axial, limb, and orolingual AIMs every 20-30 minutes for 2 hours as follows:
For the first minute, AIMs were assessed in three areas: • a. Axial: dystonic posturing of the neck and torso in a twisted manner directed toward the side of the body contralateral to the lesion; • b. Forelimb: rapid, purposeless movements of the forelimb located on the side of the body contralateral to the lesion; and; • c. Orolingual: repetitive openings and closings of the jaw and tongue protrusions occurring at times when the rats are not chewing or knowing on food or other objects.
AIMs were scored and recorded on a scale from 0 to 4: • 0=not present; • 1=present for less than 50% of the Observation period; • 2=present for 50% or more of the observation period; • 3=present for the entire observation period but interrupted by a loud stimulus (a tap on the cage); and • 4=present for the entire observation period and not interrupted by a loud stimulus.
For the second minute, contralateral rotations, defined as complete 360 turns away from the lesioned side of the brain, were tallied.
Ipsilateral rotations were counted as negative numbers and thus, deducted from the total contralateral rotations.
For each AIMs subcategory, the scores were summed for the entire testing period.
After an additional one week, baseline AIMs were measured and rats were treated with L-dopa at 12 mg/kg and Sydnocarb at 10 and 30 mg/kg (ip) for 12 days. On days 1, 8, 10, and 12, AIMs were scored every 20 minutes for 2 hours and graphed as a sum of axial, limb, and orolingual (ALO) abnormal movements (FIG. 6).
Sydnocarb was administered at 3 mg/kg (ip) to 6-OHDA-lesioned rats once per day for 12 days.
Sprague-Dawley rats (3/group) were injected unilaterally with 6-OHDA as described herein. Two weeks later, rats were tested for amphetamine-induced rotation activity to verify the dopaminergic lesion. After an additional six weeks, baseline AIMs were measured and rats were treated with Sydnocarb at 3 mg/kg (ip) for 12 days. No L-dopa was administered in this experiment. On days 5 and 12, AIMs were scored at 30, 90, and 150 minutes post-dose and graphed as a sum of axial, limb, and orolingual (ALO) abnormal movements (FIG. 11).

noradrenaline reuptake = details: rat synaptosomes; Erdö et al. 1981; cited from earlier work
[4] = humans and animals; cited from earlier work
[5] = humans; cited from earlier work
[6] = Gruner et al. 2011; cited from earlier work
6-OHDA-lesioned rats = experiment: Forelimb adjusting step (FAS) test; format: in vivo, rat
Description: In 6-OHDA-lesioned rats, L-dopa administration also elicits a therapeutically beneficial anti-akinetic activity that can be measured by the forelimb adjusting step (FAS) test. To determine the effect of Sydnocarb on L-dopa efficacy on this motor function, 6-OHDA-lesioned rats were treated with L-dopa in combination with Sydnocarb at 10 mg/kg and assessed by the FAS test (see, FIG. 3).
For three consecutive days, the experimenter that performed the study handled the rats so they were familiar with the experimenter's grip: the rat was held with one hand fixing the hindlimbs and slightly raising the hind part above the surface; the other hand fixed the forelimb not to be monitored; the forelimb to be monitored was touching the table; the animal was moved slowly sideways (approx. 5 sec for 90 cm), first in the forehand and then in the backhand; and these steps were repeated for the other forelimb. Forehand is defined as compensating movement toward the body and backhand is defined as compensating movement away from the body.
Each stepping test consisted of six trials for each forepaw, alternating between directions both forehand and backhand as follows: the rat was held in the same position as described above with one paw touching the table; the rat was moved slowly sideways (approx 5 sec for 90 cm), first in the forehand and then in the backhand; the number of adjusting steps for both paws in the forehand and back hand directions of movement were counted and recorded; and the sequence of testing was left paw forehand and backhand adjusting stepping, followed by right paw backhand and forehand directions. The rat was returned to its home cage and the sequence repeated with the second rat in the cage. Five more trials were performed for each rat, placing the rats back in their home cage between trials.
This portion of the experiment was run 3-4 weeks post 6-OHDA lesion, and at least 1 week post rotations testing as follows: prior to the start of dosing, rats were trained and baselines performed as above; preparation of L-dopa with benserazide (concentrations are for i.p. injection, 10 ml/kg): a) L-dopa dissolved in saline at 1.2 mg/ml; and b) benserazide dissolved in saline at 0.4 mg/ml; preparation of sydnocarb 10 mg/kg (concentrations are for i.p. injection, 10 ml/kg): a) sydnocarb dissolved in 0.5% methylcellulose, 0.2% tween 80 in dH2O at 1 mg/ml.
Rats were weighed and injected with L-dopa/benserazide (12 mg/kg/4 mg/kg). FAS were run approximately 60 minutes post L-dopa/benserazide dose. Rats were returned to home cage.
Rats were weighed and injected with sydnocarb 10 mg/kg or vehicle (0.5% methylcellulose, 0.2% tween 80 in dH2O), 30 minutes prior to L-dopa/benserazide dosing. The rest of the study was continued as described in Day 1.
Data were represented as percent by summing steps (forward and backhand) of the lesioned forelimb and dividing by the sum of the steps of the intact forelimb and multiplying by 100, giving a measure of the degree of forepaw disability. A similar calculation was obtained for percent of lesioned forelimb, giving a measure of gain of function.
Sprague-Dawley rats (6/group) were injected unilaterally with 6-OHDA as described above. […] Forepaw adjusting steps were scored and graphed as a percent of the intact (unaffected) forelimb. […] (**p<0.01, p=0.058, One-way ANOVA with post-hoc t-test compared to veh+veh). […] Moreover, Sydnocarb may allow the use of lower therapeutic doses of L-dopa, thereby reducing potential L-dopa-induced side effects.
L-dopa was administered at a dose level of 6 mg/kg (ip) along with benserazide (ip; 2 mg/kg). […] For these 6 mg/kg L-dopa studies, rats were combined from two previous L-dopa/Sydnocarb studies and allowed a 3-week wash out period.
After an additional one week, baseline FAS was measured and rats were treated with L-dopa at 6 mg/kg and Sydnocarb at 3 and 10 mg/kg (ip) for 12 days. […]

C57Bl/6 mice = experiment: Mouse electroencephalogram, time awake; format: in vivo; details: intraperitoneal injection 4 hours after lights-on
Description: Electroencephalographic data were obtained in C57Bl/6 mice chronically implanted with electrodes to monitor brain and muscular activity. The percent time spent awake was evaluated following intraperitoneal injections of Sydnocarb 4 hours after lights-on, when mice are predominantly sleeping.

[7] = equimolar doses, cited from earlier work
extracellular DA = details: rat striatum and nucleus accumbens; cited from earlier work
[8] = L-dopa 12 mg/kg and Sydnocarb 10 mg/kg ip (day 2)

CCOC[C@@H]1[C@@H](c2ccc(Cl)c(Cl)c2)C[C@@H]2CC[C@H]1N2C [Tesofensine]
vertical activity (rearing events) [1]: prevent decrease in vertical activity
effect of test drug on L-dopa-induced AIMs (dyskinesia) [2]: had no affect on AIMs

CC(Cc1ccccc1)[n+]1cc([N-]C(=O)Nc2ccccc2)on1 (stereo not drawn) [Sydnocarb, 3-(β-phenylisopropyl)-N-phenylcarbamoylsydnonimine]
DAT activity (DA transporter (DAT)): has DAT activity
sum of ALO AIMs compared to vehicle ([3]; L-dopa 12 mg/kg and Sydnocarb 10 and 30 mg/kg ip for 12 days, days 1, 8, 10, 12): decrease in AIMs compared to vehicle
sum of ALO AIMs compared to vehicle ([3]; L-dopa 12 mg/kg and Sydnocarb 10 and 30 mg/kg po for 12 days, days 5 and 12): decrease in AIMs compared to vehicle
AIMs scores relative to L-dopa treatment ([3]; Sydnocarb 3 mg/kg ip for 12 days, no L-dopa): approximately 20 times lower
sum of ALO AIMs, Sydnocarb alone ([3]; Sydnocarb 3 mg/kg ip for 12 days, no L-dopa, days 5 and 12): nominal AIMs
noradrenaline reuptake (noradrenaline reuptake): attenuates noradrenaline reuptake
vertical activity (rearing events) [1]: prevent decrease in vertical activity
metabolite formed [4]: metabolized to D-amphetamine
toxic episodes and abuse potential [5]: neither significant toxic episodes nor abuse potential have been reported
rebound hypersomnolence [6]: lacks the rebound hypersomnolence
FAS adjusting steps compared to vehicle (6-OHDA-lesioned rats; L-dopa 6 mg/kg and Sydnocarb 3 mg/kg ip for 12 days, days 5 and 12): increase in adjusting steps compared to vehicle
FAS adjusting steps compared to vehicle (L-dopa alone) (6-OHDA-lesioned rats; L-dopa 6 mg/kg and Sydnocarb 10 mg/kg po for 12 days, day 12, 60 min post-dose): slight increase, and importantly no decrease, in adjusting steps
forepaw adjusting steps as percent of the intact forelimb (6-OHDA-lesioned rats; [8]): ~100%
forepaw adjusting steps, percent of the intact forelimb, compared to vehicle (6-OHDA-lesioned rats; [8]): significant increase
adjusting step scores compared to L-dopa alone (6-OHDA-lesioned rats; Sydnocarb 10 mg/kg with L-dopa): increased scores compared to L-dopa alone
percent time spent awake compared to vehicle controls (C57Bl/6 mice): dose-dependently increased time awake
effect of test drug on L-dopa-induced AIMs (dyskinesia) [2]: ameliorates L-dopa-induced dyskinesia
reduction of L-dopa-induced AIMs ([2]; Sydnocarb administered 30 min after L-dopa, seen 30 and 60 minutes after L-dopa administration): approximately 40%
abnormal involuntary movements (AIMs) score compared to vehicle-treated rats [2]: did not cause significant AIMs
markers of neurotoxicity relative to D-AMPH ([7]; DA depletion, reactive oxygen species, lipid peroxidation): smaller changes in the markers of neurotoxicity
hyperlocomotion and stereotypy relative to D-AMPH [7]: less hyperlocomotion and stereotypy
extracellular DA increase compared with D-AMPH (extracellular DA): slower and more gradual increase in extracellular DA

N[C@@H](Cc1ccc(O)c(O)c1)C(=O)O [L-dopa]
sum of ALO AIMs compared to baseline ([3]; L-dopa 12 mg/kg ip with benserazide, chronic dosing): increase in AIMS compared to baseline
FAS, % affected paw compared to baseline (6-OHDA-lesioned rats; L-dopa 6 mg/kg ip alone, 12 days): slight increase in adjusting steps compared to baseline
forepaw adjusting steps, percent of the intact forelimb, compared to vehicle (6-OHDA-lesioned rats; L-dopa 12 mg/kg alone): slight increase in steps compared to vehicle
abnormal involuntary movements (AIMs) score compared to vehicle-treated rats [2]: significantly higher AIMs scores
abnormal involuntary movements (AIMs) caused by L-dopa ([2]; two-day treatment with L-dopa, 50 mg/kg): increase in abnormal involuntary movements
